Assay results reported in patent US6610674B1, “Method of treating inflammatory conditions with progesterone analogs” (University of Pennsylvania, priority 1999, dated 2003).
Values joined by “and” are separate entries in the source; they are usually repeats but may differ in a detail not shown here. Identical values can stand only once.

Experiments:
[1] = system: lymphocytes infiltrating the large bowel lamina propria; experiment: scid mouse model of Inflammatory Bowel Disease: lymphocytes infiltrating the large bowel lamina propria; format: in vivo, scid C.B.-17 mice; settings: for effect on lymphocyte infiltration into the bowel (in words): compared to buffer control; for effect on lymphocyte infiltration into the bowel (in words) / CD4+ Lymphocytes, Average / CD4+ as a percent of total Lymphocytes, Average / Total Lymphocytes, Average: 25 mg/kg orally each day; for CD4+ Lymphocytes, Average / CD4+ as a percent of total Lymphocytes, Average / Total Lymphocytes, Average: group average; for CD4+ Lymphocytes / CD4+ as a percent of total Lymphocytes / Total Lymphocytes: individual mouse, 25 mg/kg orally each day until sacrifice, lamina propria, 25 mg/kg
From the text: The scid (severe combined immunodeficient) C.B.-17 line of mice provide an effective model of Inflammatory Bowel Disease. The disease state in these mice is triggered by the intraperitoneal injection of CD4+ T cells from a normal BALB/C mouse. The induced disease is characterized by intestinal inflammation in the large intestine, leukocytic infiltrates into the mucosa, submucosa, and mucularis, epithelial cell hyperplasia, loss of mucin-secreting cells, and ulcers with deep fissures, and diarrhea. In the mouse model, CD4+ T cells and macrophages infiltrate the bowel. The scid mouse is recognized by the art as a model for IBD. Powrie et al., Inhibition of Th1 Responses Prevents Inflammatory Bowel Disease in scid Mice Reconstituted with CD45RBhi CD4+ T Cells, Immunity 1:553-562 (1994).
500,000 to 1×10^6 T cells derived from the lymph nodes of normal BALB/C mice were injected intraperitoneally into scid mice 6 weeks prior to sacrifice. 2 days before lymphocyte administration, treatment of the scid mice began with buffer control, medroxyprogesterone acetate, or 17-hydroxyprogesterone. The treatment mice (5 in each group) received 25 mg/kg of drug orally each day until sacrifice.
After sacrifice, lamina propria (bowel wall) lymphocytes were isolated from each animal. The total number of lymphocytes, number of CD4+ lymphocytes, and the percent of CD4+ lymphocytes was determined. CD4+ lymphocytes were identified by using a first antibody directed to CD4, and a second antibody directed to the first antibody. The second antibody was tagged with fluorescein, which lights up as green in a flow cytometer, identifying which lymphocytes are the CD4+ form. Lymphocyte infiltration into the bowel is a predictor of the progress of the disease because lymphocytes are involved in the inflammatory response leading to damage of the bowel wall.

[2] = system: TNF-α release from macrophages; experiment: TNF-α release (ELISA) from spleen macrophages of treated mice; format: cell-based, mouse
Experimental: The spleens of six of the mice from Example 1 were removed after the animals were sacrificed. Macrophages were isolated from the spleen of the medroxyprogesterone acetate or buffer control treated mice. TNF-α release from these macrophages was measured by ELISA following stimulation with either (1) rat anti-mouse macrophage Fc receptor antibody 2.4G2 and F(ab′)2 IgG goat anti-rat antibody, or (2) phorbol myristate acetate (“PMA”), a phorbol ester. The effect of medroxyprogesterone acetate on TNF-α release is illustrated in Table 2.

[3] = system: IL-6 release from macrophages; experiment: IL-6 release (ELISA) from spleen macrophages of treated mice; format: cell-based, mouse
Experimental: The spleens of four of the mice from Example 1 were removed after the animals were sacrificed. Macrophages were isolated from the spleen of the medroxyprogesterone acetate or buffer control treated mice. IL-6 release from these macrophages was measured by ELISA following stimulation with rat anti-mouse macrophage Fc receptor antibody 2.4G2 and F(ab′)2 IgG goat anti-rat antibody. The effect of medroxyprogesterone acetate on IL-6 release is illustrated in Table 3.

[4] = system: Patients with mild to moderate ulcerative colitis; experiment: Treatment of patients with ulcerative colitis (Disease Activity Index); format: in vivo, human
Experimental: (§1) Patients with mild to moderate ulcerative colitis were evaluated for their response to treatment with medroxyprogesterone acetate. Patients in the treatment group (8 patients) received a loading dose of 1 gram of medroxyprogesterone acetate every 6 hours for 8 doses. These patients were then given 500 mg of medroxyprogesterone every 12 hours for 8 weeks.
Disease improvement was measured using the Disease Activity Index (DAI). The DAI is a total score for stool frequency, blood in the stool, the investigator's global assessment (IGA), and the physician's evaluation of the appearance of mucosa during flexible sigmoidoscopy of the colon.

[5] = system: Patients with mild to moderate Crohn's disease; experiment: Treatment of patients with Crohn's disease (CDAI); format: in vivo, human
Experimental: as §1, with “moderate Crohn's disease” for “moderate ulcerative colitis”, “with […]” for “with medroxyprogesterone”, “group (12” for “group (8”, “patients) recieved” for “patients) received”
Disease improvement was measured using the Crohn's Disease Activity Index (CDAI). The CDAI score for a patient was calculated by multiplying the numerical value for each variable by multiplication factor indicated for that variable, and totaling all of the resultant values, as shown in Table 5. A score below 150 indicated remission and a score above 450 indicated severe disease. In order to enter the study, patients were required to have a total CDAI score of 200 to 400 at baseline.
Disease remission was defined as a CDAI score of 150 or below. Disease response was defined as either a decrease of 70 or greater in the CDAI or disease remission.

[6] = individual mouse, stimulation 2.4G2 and F(ab′)2 IgG anti-rat, listed as MPA

CC(=O)[C@@]1(O)CC[C@H]2[C@@H]3CCC4=CC(=O)CC[C@]4(C)[C@H]3CC[C@@]21C [17-hydroxyprogesterone]
effect on lymphocyte infiltration into the bowel (in words) [1]: did not work in treating the mice
CD4+ Lymphocytes, Average [1]: 16.3 1 × 106
CD4+ as a percent of total Lymphocytes, Average [1]: 88.0%
Total Lymphocytes, Average [1]: 18.4 1 × 106
CD4+ Lymphocytes [1]: 8.9 1 × 106 and 1.6 1 × 106 and 15 1 × 106 and 23 1 × 106
CD4+ as a percent of total Lymphocytes [1]: 89% and 81% and 93% and 91%
Total Lymphocytes [1]: 10 1 × 106 and 2 1 × 106 and 16.5 1 × 106 and 25.2 1 × 106

CC(=O)O[C@]1(C(C)=O)CC[C@H]2[C@@H]3C[C@H](C)C4=CC(=O)CC[C@]4(C)[C@H]3CC[C@@]21C [Medroxyprogesterone Acetate, pregn-4-ene-3,20-dione, 17-(acetyloxy)-6-methyl-, (6α)-]
effect on lymphocyte infiltration into the bowel (in words) [1]: effective in decreasing lymphocyte infiltration into the bowel
CD4+ Lymphocytes, Average [1]: 3.8 1 × 106
CD4+ as a percent of total Lymphocytes, Average [1]: 81.4%
Total Lymphocytes, Average [1]: 4.5 1 × 106
CD4+ Lymphocytes [1]: 1.6 1 × 106 and 4.1 1 × 106 and 1.3 1 × 106 and 3.0 1 × 106 and 9.2 1 × 106
CD4+ as a percent of total Lymphocytes [1]: 81% and 87% and 65% and 83% and 91%
Total Lymphocytes [1]: 2 1 × 106 (2×) and 4.8 1 × 106 and 3.6 1 × 106 and 10.2 1 × 106
TNF-α Measurement [2, 6]: 2314 pg/mL and 27563 pg/mL and 1843 pg/mL
TNF-α Repeat Measurement [2, 6]: 1026 pg/mL and 0 pg/mL
TNF-α Repeat Measurement ([2]; individual mouse, stimulation PMA for Repeat Measurement): 0 pg/mL
effect on TNF-α release from macrophages (in words) ([2]; macrophages from treated mice): may be inhibiting TNF-α release from macrophages
IL-6 Measurement [3, 6]: 298,940 and 266,557
effect on IL-6 release from macrophages (in words) ([3]; macrophages from treated mice): may be inhibiting IL-6 release from macrophages
patients showing improvement with treatment ([4]; 8 weeks, 8 patients): Five out of eight
Improvement (reduction of one or more units in DAI score at end of study vs baseline) ([4]; individual patient, 1 g every 6 hours for 8 doses, then 500 mg every 12 hours for 8 weeks): Yes (5×) and No (3×)
non-responders with reduction in symptoms and complaints during initial treatment ([4]; of the 3 patients who did not respond at end of 8 week study): 2 patients
adverse event leading to drop out ([5]; 12 patients treated): One patient dropped out for a minor adverse event (fatigue)
Remissions (CDAI score of 150 or below) ([5]; Completers (10 patients), 8 weeks): 7
